Data from patent US11400063B2, “Early administration of low-dose colchicine after myocardial infarction” (INSTITUT DE CARDIOLOGIE DE MONTREAL, priority 2019, dated 2022).

Test system: patients recruited within 30 days after a myocardial infarction
Assay: COLCOT safety and adverse events (safety population)
Assay type: in vivo, human
Experimental: All serious adverse events were recorded. The only other adverse events recorded were those that were considered to be related to the gastrointestinal system, events that were judged by the investigator to be related to colchicine or placebo, or laboratory abnormalities that had been judged by the investigator to be clinically significant.

[1] = safety population, listed as colchicine

Q: Which “trial regimen discontinued, % of patients” value (at the end of the trial) does the source give for COc1cc2c(c(OC)c1OC)-c1ccc(OC)c(=O)cc1[C@@H](NC(C)=O)CC2 [Colchicine, colchicine] here?
A: Its value is 18.4%.

Q: And the “incidence of septic shock” value (in contrast to canakinumab)?
A: Its value is “did not increase”.

Q: And the “Anemia, number of patients” value (safety population)?
A: The value was 14 number.

Q: What about the “Anemia, percent of patients” value (safety population) of the same compound?
A: The value was “(0.6) percent”.

Q: What about the “Any related adverse event, percent of patients” value (safety population) of the same compound?
A: Its value is “(16.0) percent”.

Q: What about the “Any serious adverse event, number of patients” value (safety population) of the same compound?
A: The value was 383 number.

Q: What about the “Any serious adverse event, percent of patients” value (safety population) of the same compound?
A: The value was “(16.4) percent”.

Q: And the “Cancer, number of patients” value (safety population)?
A: Its value is 43 number.

Q: And the “Cancer, percent of patients” value (safety population)?
A: Its value is “(1.8) percent”.

Q: What about the “Diarrhea adverse event, number of patients” value (safety population) of the same compound?
A: The value was 225 number.

Q: And the “Diarrhea adverse event, percent of patients” value (safety population)?
A: Its value is “(9.7) percent”.

Q: What about the “Flatulence adverse event, number of patients” value (safety population) of the same compound?
A: The value was 15 number.

Q: What about the “Flatulence adverse event, percent of patients” value (safety population) of the same compound?
A: The value was “(0.6) percent”.

Q: And the “Gastrointestinal adverse event, number of patients” value (safety population)?
A: The value was 408 number.

Q: And the “Gastrointestinal adverse event, percent of patients” value (safety population)?
A: The value was “(17.5) percent”.

Q: What about the “Gastrointestinal hemorrhage, number of patients” value (safety population) of the same compound?
A: Its value is 7 number.

Q: And the “Gastrointestinal hemorrhage, percent of patients” value (safety population)?
A: The value was “(0.3) percent”.

Q: And the “Gastrointestinal serious adverse event, number of patients” value (safety population)?
A: The value was 46 number.

Q: And the “Gastrointestinal serious adverse event, percent of patients” value (safety population)?
A: The value was “(2.0 ) percent”.

Q: What about the “Hospitalization for heart failure, number of patients” value (safety population) of the same compound?
A: The value was 25 number.

Q: And the “Hospitalization for heart failure, percent of patients” value (safety population)?
A: Its value is “(1.1) percent”.

Q: And the “Infection serious adverse event, number of patients” value (safety population)?
A: Its value is 51 number.

Q: And the “Infection serious adverse event, percent of patients” value (safety population)?
A: Its value is “(2.2) percent”.

Q: And the “Leukopenia, number of patients” value (safety population)?
A: Its value is 2 number.

Q: And the “Leukopenia, percent of patients” value (safety population)?
A: Its value is “(0.1) percent”.

Q: And the “Nausea adverse event, number of patients” value (safety population)?
A: Its value is 43 number.

Q: And the “Nausea adverse event, percent of patients” value (safety population)?
A: The value was “(1.8) percent”.

Q: And the “Pneumonia serious adverse event, number of patients” value (safety population)?
A: Its value is 21 number.

Q: And the “Pneumonia serious adverse event, percent of patients” value (safety population)?
A: The value was “(0.9) percent”.

Q: And the “Septic shock serious adverse event, number of patients” value (safety population)?
A: Its value is 2 number.

Q: What about the “Septic shock serious adverse event, percent of patients” value (safety population) of the same compound?
A: Its value is “(0.1) percent”.

Q: What about the “Thrombocytopenia, number of patients” value (safety population) of the same compound?
A: Its value is 3 number.

Q: And the “Thrombocytopenia, percent of patients” value (safety population)?
A: The value was “(0.1) percent”.

Q: What about the “Any related adverse event, number of patients” value (safety population, N = 2330) of the same compound?
A: Its value is 372 number.

Q: And the “Any related adverse event, percent of patients” value [1]?
A: Its value is 16.0%.

Q: What about the “Any serious adverse event, percent of patients” value [1] of the same compound?
A: Its value is 16.4%.

Q: What about the “Diarrhea adverse event, percent of patients” value [1] of the same compound?
A: Its value is 9.7%.

Q: And the “Gastrointestinal adverse event, percent of patients” value [1]?
A: Its value is 17.5%.

Q: What about the “Infection serious adverse event, percent of patients” value [1] of the same compound?
A: Its value is 2.2%.

Q: And the “Nausea adverse event, percent of patients” value [1]?
A: Its value is 1.8%.

Q: And the “Pneumonia serious adverse event, percent of patients” value [1]?
A: The value was 0.9%.

Q: And the “serious adverse event of myopathy linked to colchicine” value (statins used in 99% of trial participants)?
A: The value was “no serious adverse event”.
